Values quoted from earlier work as cited in the CATMoS acute toxicity set (Mansouri et al. 2021).
Values joined by “and” are separate entries in the source; they are usually repeats but may differ in a detail not shown here. Identical values can stand only once.

Test: rat acute oral toxicity
Conditions: in vivo
In the case of `COc1ccc(N2CCN(CCCN(C)C)CC2)cc1`, the LD50 is listed as 787 mg/kg. For `C[C@H]1C(=O)O[C@@H]2CCN3CC=C(COC(=O)[C@](C)(O)[C@]1(C)O)[C@H]23`, the LD50 is listed as 66 mg/kg. For `CN=NNc1ccc(C)cc1`, the LD50 is given as 381 mg/kg. For `C=CC(=O)NCO`, the LD50 is listed as 474 mg/kg. In the case of `CC(C)=CC1C(C(=O)OCc2cccc(Oc3ccccc3)c2)C1(C)C` (configuration not stated), the LD50 is listed as 500 mg/kg. For `CC(=O)C1(O)CCC(c2ccccc2)CC1` (configuration not stated), the LD50 is listed as 8000 mg/kg. For `O=S(=O)(O)c1ccc2cc(Nc3cccc4c(O)c(S(=O)(=O)O)ccc34)ccc2c1O`, the LD50 is given as 11000 mg/kg. For `CCOC(=O)C(C(C)=O)P(=O)(OCC)OCC` (configuration not stated), the LD50 is given as 176 mg/kg. For `CN(C)CC/C=C1/c2ccccc2CSc2ccccc21`, the LD50 is given as 260 mg/kg. In the case of `O=C1C(=C(Cl)Cl)C(=O)C2(Cl)C3C=CC(C3)C12Cl` (configuration not stated), the LD50 is given as 2760 mg/kg. For `CC(C)(Oc1ccc(Cl)cc1)C(=O)OCCCOC(=O)C(C)(C)Oc1ccc(Cl)cc1`, the LD50 is listed as 7300 mg/kg. In the case of `FC(F)(F)c1cccc(C2CNCCO2)c1` (configuration not stated), the LD50 is given as 271 mg/kg. In the case of `CC(=O)OCCC(Cl)C(C)=O` (configuration not stated), the LD50 is listed as 2050 mg/kg. In the case of `CSC(C)(C)C=NO`, the LD50 is listed as 742 mg/kg. In the case of `N#C[Se]Cc1ccccc1`, the LD50 is given as 98.5 mg/kg. In the case of `CC12CCC3(CCCC(C)(C)C3C1)OC2=O` (configuration not stated), the LD50 is listed as 1600 mg/kg. For `CNc1nc(C)nc(OC)n1`, the LD50 is listed as 394 mg/kg. For `OCC(Cl)CCl` (configuration not stated), the LD50 is listed as 90 mg/kg. For `O=C1C(Cl)C(CCl)CN1c1cccc(C(F)(F)F)c1` (configuration not stated), the LD50 is given as 3650 mg/kg. In the case of `CC(=O)c1ccc2oc3ncccc3c(=O)c2c1`, the LD50 is given as 1680 mg/kg. In the case of `CC1C(C)(C)C2=C(c3ncncc3CC2)C1(C)C` (configuration not stated), the LD50 is given as 500 mg/kg. In the case of `O=C=Nc1ccccc1C(F)(F)F`, the LD50 is given as 7000 mg/kg. In the case of `Cc1nc2ccccc2[se]1`, the LD50 is given as 471 mg/kg. For `CN(C)N=Nc1nc[nH]c1C(N)=O`, the LD50 is listed as 2150 mg/kg. In the case of `CCCCCCCCCCCCCCSC#N`, the LD50 is listed as 15000 mg/kg. For `Cn1cc(CCc2cc[n+](CCC[N+](C)(C)C)cc2)c2ccccc21`, the LD50 is given as 200 mg/kg. For `CCOC(=O)C(C)N(C(=O)c1ccccc1)c1ccc(Cl)c(Cl)c1` (configuration not stated), the LD50 is listed as 1550 mg/kg. For `CC[N+](C)(C)C(C)CC(c1ccccc1)c1ccccc1` (configuration not stated), the LD50 is given as 1000 mg/kg. In the case of `CCC(CC)c1cccc(OC(=O)NC)c1`, the LD50 is listed as 87 mg/kg. In the case of `CC(=O)OC(C(=O)NC(N)=O)c1ccccc1` (configuration not stated), the LD50 is listed as 2100 mg/kg. In the case of `CCOP(=O)(OCC)SCSc1cc(Cl)ccc1Cl`, the LD50 is listed as 38 mg/kg. For `Cc1cc(S(=O)(=O)c2ccccc2)ccc1NS(=O)(=O)C(F)(F)F`, the LD50 is listed as 633 mg/kg. In the case of `CC(C)=CCC1=C(O)C(C(=O)CC(C)C)=C(O)C(CC=C(C)C)(CC=C(C)C)C1=O`, the LD50 is listed as 100 mg/kg. For `C=CCOC(=O)Cc1ccccc1`, the LD50 is given as 650 mg/kg. In the case of `CCOP(=O)(OCC)Oc1cc(C)oc(=O)c1`, the LD50 is given as 3.34 mg/kg. For `C1CNCCNC1`, the LD50 is given as 2830 mg/kg. For `CCc1cccc(C)c1N`, the LD50 is given as 885 mg/kg. In the case of `CC(C)(C)N=NC(C)(C)O`, the LD50 is given as 329 mg/kg. In the case of `C[N+](C)(C)CCO`, the LD50 is listed as 6640 mg/kg. In the case of `O=C(C=CC(=O)OCCCl)OCCCl`, the LD50 is given as 71 mg/kg. For `CC(=O)SCc1cnc(C)c(O)c1CSC(C)=O`, the LD50 is given as 870 mg/kg. In the case of `CCCCc1c(OC(=O)c2ccc3c(c2)OCO3)n(-c2ccccc2)n(-c2ccccc2)c1=O`, the LD50 is given as 1370 mg/kg. In the case of `O=C(CF)Nc1ccc(-c2ccccc2)cc1`, the LD50 is given as 10 mg/kg. For `CCN(CC)CCc1nc(-c2ccccc2)no1`, the LD50 is given as 1650 mg/kg. For `Nc1cc(S(=O)(=O)O)c2cccc(S(=O)(=O)O)c2c1`, the LD50 is given as 11400 mg/kg. In the case of `CCOC(=O)COc1ccc2c(C)c(CCN(CC)CC)c(=O)oc2c1Cl`, the LD50 is listed as 1250 mg/kg. For `CCOC(O)C(Cl)(Cl)Cl` (configuration not stated), the LD50 is listed as 880 mg/kg. For `CC(C(=O)O)c1ccc(-n2cc3ccccc3n2)cc1` (configuration not stated), the LD50 is listed as 1550 mg/kg. In the case of `C[C@H](NC(=O)[C@H](C)NC(=O)[C@@H](N)CCP(C)(=O)O)C(=O)O`, the LD50 is given as 268 mg/kg. For `CN(CCn1cnc2c1c(=O)n(C)c(=O)n2C)c1ccccc1`, the LD50 is given as 2880 mg/kg. In the case of `COc1ccc2c(c1)c(CC(=O)Oc1ccc(NC(C)=O)cc1)c(C)n2C(=O)c1ccc(Cl)cc1`, the LD50 is given as 887 mg/kg. For `CC1=NN(C(=N)N=C(N)N)C(C)(C)C1`, the LD50 is listed as 4090 mg/kg. For `O=COCCOC=O`, the LD50 is listed as 1510 mg/kg. For `CCC(C)c1ccc(Oc2ccc(C)cc2CC(=O)O)c(Cl)c1` (configuration not stated), the LD50 is given as 1110 mg/kg. For `Oc1ccc(C(c2ccc(O)cc2)c2ccccn2)cc1`, the LD50 is listed as 8550 mg/kg. In the case of `Cc1ccc(SP(=S)(CCl)OC(C)C)cc1` (configuration not stated), the LD50 is given as 204 mg/kg. For `CCOC(CC)(C1=NCC(C)(C)CN1)c1ccc(Cl)cc1` (configuration not stated), the LD50 is given as 58 mg/kg. For `COc1ccc([N+](=O)[O-])cc1CNCCCl`, the LD50 is listed as 28 mg/kg. For `ClCCCCCCCl`, the LD50 is listed as 2680 mg/kg. In the case of `COc1ccc(C=CC(=O)O)cc1O`, the LD50 is listed as 7900 mg/kg. For `Cc1[nH]nc(Cl)c1[N+](=O)[O-]`, the LD50 is given as 350 mg/kg. For `Cc1cc(OCCO)cc(C)c1Cl`, the LD50 is given as 3800 mg/kg. In the case of `CC(C)c1ccc(C(C)(C)O)cc1`, the LD50 is listed as 11300 mg/kg. For `CN1C(=O)CC(=O)N(c2ccccc2)c2cc(Cl)ccc21`, the LD50 is given as 6000 mg/kg. In the case of `CCCCCCCCP(=O)(O)O`, the LD50 is given as 1890 mg/kg. In the case of `COc1cc2nc(N3CCN(C(=O)OCC4CC4)CC3)nc(N)c2cc1OC`, the LD50 is listed as 1150 mg/kg. For `CC(=O)c1cccc(N=Nc2ccc(N(C)C)cc2)c1`, the LD50 is given as 4820 mg/kg. For `N#CCC[P+](CCC#N)(CCC#N)CC[P+](CCC#N)(CCC#N)CCC#N`, the LD50 is listed as 10000 mg/kg. For `C[N+](C)(C)CCCCCCCCCC[N+](C)(C)C`, the LD50 is listed as 85 mg/kg. In the case of `CCCC(C)C1(CC)C(=O)N=C(S)NC1=O` (configuration not stated), the LD50 is given as 117 mg/kg. For `CCCc1ccc(C=O)cc1`, the LD50 is listed as 1600 mg/kg. In the case of `CCCN(CCC)C(=O)C(CCC(=O)O)NC(=O)c1ccccc1` (configuration not stated), the LD50 is given as 20000 mg/kg and 8200 mg/kg.
